B1: cGASΔN: constitutively-active truncated human cGAS, C-terminal domain (SEQ ID NO:1) (protein, listed as Homo sapiens)
chain: PGASKLRAVLEKLKLSRDDISTAAGMVKGVVDHLLLRLKCDSAFRGVGLLNTGSYYEHVKISAPNEFDVMFKLEVPRIQLEEYSNTRAYYFVKFKRNPKENPLSQFLEGEILSASKMLSKFRKIIKEEINDIKDTDVIMKRKRGGSPAVTLLISEKISVDITLALESKSSWPASTQEGLRIQNWLSAKVRKQLRLKPFYLVPKHAKEGNGFQEETWRLSFSHIEKEILNNHGKSKTCCENKEEKCCRKDCLKLMKYLLEQLKERFKDKKHLDKFSSYHVKTAFFHVCTQNPQDSQWDRKDLGLCFDNCVTYFLQCLRTEKLENYFIPEFNLFSSNLIDKRSKEFLTKQIEYERNNEFPVFDEF

Legend:
canine PBMCs = test: IL-1β secretion by canine PBMCs (ELISA); assay type: cell-based; conditions: two days in culture, R848 1 μg/mL, 22:0 LYSO PC 82.5 μM
Protocol: (§1) Isolation of PBMCs from Whole Blood. PBMCs were isolated from whole blood using density gradient centrifugation with Ficoll-Paque PLUS (Cytivia). Whole blood was diluted 1:1 with PBS, layered on top of Ficoll-Paque PLUS and centrifuged at 1000×g for 30 minutes at room temperature. PBMCs were collected, washed twice in PBS, and incubated with Ack lysis buffer (Lonza) to remove any remaining red blood cells.
(§2) Cell Culture and Stimulation. Immediately following isolation, PBMCs were plated in RPMI medium containing 10% FBS, 50 units/mL penicillin, […] streptomycin, 2 mM L-glutamine, 1 mM sodium pyruvate, and […] beta-mercaptoethanol (R10 media). […]
(§3) Endpoint Analyses. […] Half of the media volume in the wells was collected for cytokine quantification by Enzyme-Linked Immunosorbent Assay (ELISA) or Lumit™ Bioluminescent assay, while the remaining media and cells were used to quantify cell viability by assessing metabolic activity.
(§4) Quantification of Cytokine Secretion. IL-1β secretion from human PBMCs was assessed using one of the following kits: ELISA MAX Deluxe Set Human IL-1β kit (Biolegend), Invitrogen Human IL-1β kit, or the Lumit™ Human IL-1β Immunoassay (Promega). IFNγ secretion from human PBMCs was assessed using the ELISA MAX Deluxe Set Human IFNγ (Biolegend) and TNFα secretion from human PBMCs was assessed using the Human TNFα Uncoated ELISA kit (Invitrogen). […]

human PBMCs [1] = test: IFNγ and TNFα secretion by human PBMCs (ELISA); assay type: cell-based; conditions: two days post-hyperactivation
Protocol: Cell Culture and Stimulation. Immediately following isolation, PBMCs were plated in RPMI medium containing 10% FBS, 50 units/mL penicillin, […] streptomycin, 2 mM L-glutamine, 1 mM sodium pyruvate, and […] beta-mercaptoethanol (R10 media). Cells were plated at 1×10^5 (canine cells) or 1×10^6 (human cells) per well in 96-well flat bottom tissue culture plates. Lyophilized Vaccigrade R848 (Invivogen) was reconstituted and diluted according to manufacturer's recommendations and added to cells at a final concentration of 1 μg/mL. Immediately following, 22:0 LYSO PC was added to cells at a final concentration of 82.5 μM. […]
as §3, §4

human PBMCs [2] = test: IL-1β secretion by human PBMCs (ELISA or Lumit); assay type: cell-based; conditions: two days in culture
Protocol: as §1, §2, §3, §4

[3] = system: human leukemia monocytic cell line; conditions: cited from earlier work

Molecule | IL-1β secretion (canine PBMCs) | IFNγ secretion, fold change per donor relative to R848 alone (human PBMCs [1]) | IL-1β secretion (human PBMCs [2]) | expression of interferon and interferon-stimulated genes [3]
Nc1nc2c(ncn2[C@@H]2O[C@@H]3COP(=O)(O)O[C@H]4[C@@H](O)[C@H](n5cnc6c(N)ncnc65)O[C@@H]4COP(=O)(O)O[C@@H]2[C@@H]3O)c(=O)[nH]1 [2′3′cGAMP, 2′3′cyclic GMP-AMP, reference compound] | neither GM-CSF nor 2′3′cGAMP induced significant IL-1β secretion | neither GM-CSF nor 2′3′cGAMP elicited a substantial fold change in IFNγ secretion over R848 alone |  | 
GM-CSF: human GM-CSF (Peprotech), innate agonist | neither GM-CSF nor 2′3′cGAMP induced significant IL-1β secretion | neither GM-CSF nor 2′3′cGAMP elicited a substantial fold change in IFNγ secretion over R848 alone | did not induce levels of IL-1β secretion from human PBMCs significantly above background levels | 
B1 |  |  |  | higher levels of expression of interferon and interferon-stimulated genes

Reference: patent publication US20250255815A1, “NUCLEIC ACIDS ENCODING A CONSTITUTIVELY-ACTIVE CYCLIC GMP-AMP SYNTHASE AND IMMUNOGENIC DELIVERY VEHICLES FOR SAME” (Corner Therapeutics, Inc., priority 2022, published 2025)
